Where “and” joins values, the source holds several entries; their conditions need not be identical. Equal values may be shown once. Read-outs that look alike come from different tables or passages of the source.
How the values were obtained:
[1] = tested on: T47D; assay: cells; type: cell-based; details: Homo sapiens, ER+ BC, dominant CDK4, read-out: IC50, mean ± SD
[2] = tested on: NCI-H441; assay: cells; type: cell-based; details: Homo sapiens, NCI-H441, 72 h
[3] = tested on: CHP-212; assay: cells; type: cell-based; details: Homo sapiens, CHP-212, 72 h
[4] = tested on: NCI-H1792; assay: cells; type: cell-based; details: Homo sapiens, NCI-H1792, 72 h
[5] = tested on: NCI-H441; assay: cells; type: cell-based; details: Homo sapiens, NCI-H441, 72 h; remark: listed apart in the source
[6] = tested on: HBCx-11; type: in vivo; details: HBCx-11, Breast, TNBC, Rb present; 125 mg/kg bid × 21
[7] = tested on: A-375; assay: cells; type: cell-based; details: Homo sapiens, A-375, 72 h
[8] = tested on: SK-MEL-5; assay: cells; type: cell-based; details: Homo sapiens, SK-MEL-5, 72 h
[9] = tested on: MGH051; assay: cells; type: cell-based; details: MGH051, 72 h
[10] = tested on: MGH051; assay: cells; type: cell-based; details: MGH051, 72 h; remark: listed apart in the source
[11] = tested on: SNU-761; assay: cells; type: cell-based; details: SNU-761, 72 h
[12] = tested on: MEL-JUSO; type: in vivo; details: Melanoma
[13] = humans, 600 mg once daily; data not shown; cited from earlier work
[14] = tested on: NB1; assay: cells; type: cell-based; details: Homo sapiens, NB1, 72 h
[15] = tested on: LnCAP; assay: cells; type: cell-based; details: Homo sapiens, 72 h
[16] = tested on: TE-14; assay: cells; type: cell-based; details: TE-14, 72 h
[17] = tested on: CDK5/p25; details: cited from earlier work
[18] = tested on: SNU-387; assay: cells; type: cell-based; details: Homo sapiens, SNU-387, 72 h
[19] = tested on: VCAP; assay: cells; type: cell-based; details: Homo sapiens, 72 h
[20] = tested on: TE-11; assay: cells; type: cell-based; details: Homo sapiens, TE-11, 72 h
[21] = tested on: HBCx-15; type: in vivo; details: HBCx-15, Breast, TNBC, Rb absent; 125 mg/kg bid × 21
[22] = tested on: KYSE30; assay: cells; type: cell-based; details: Homo sapiens, KYSE-30; KYSE30, 72 h
[23] = tested on: SK-MEL-28; assay: cells; type: cell-based; details: Homo sapiens, SK-MEL-28, 72 h
[24] = tested on: HBCx-14; type: in vivo; details: HBCx-14, Breast, TNBC, Rb absent; 125 mg/kg bid × 21
[25] = tested on: NCI-H460; assay: cells; type: cell-based; details: Homo sapiens, NCI-H460, 72 h
[26] = tested on: NCI-H1975; assay: cells; type: cell-based; details: Homo sapiens, NCI-H1975, 72 h
[27] = tested on: TE-8; assay: cells; type: cell-based; details: Homo sapiens, TE-8, 72 h
[28] = tested on: KYSE450; assay: cells; type: cell-based; details: Homo sapiens, KYSE-450; KYSE450, 72 h
[29] = tested on: TE-11; assay: cells; type: cell-based; details: Homo sapiens, TE-11, 72 h; remark: listed apart in the source
[30] = tested on: UACC-62; assay: cells; type: cell-based; details: Homo sapiens, UACC-62, 72 h
[31] = tested on: MELJUSO; assay: cells; type: cell-based; details: Homo sapiens, MEL-JUSO, 72 h
[32] = tested on: HBRX1286; type: in vivo; details: HBRX1286, Breast, TNBC, Rb absent; 250 mg/kg qd
[33] = tested on: NCI-H3122; assay: cells; type: cell-based; details: Homo sapiens, NCI-H3122, 72 h
[34] = tested on: SK-N-SH; assay: cells; type: cell-based; details: Homo sapiens, 72 h
[35] = tested on: MCF-7; assay: cells; type: cell-based; details: Homo sapiens, MCF7; MCF-7, 72 h
[36] = tested on: NCI-H3255; assay: cells; type: cell-based; details: Homo sapiens, NCI-H3255, 72 h
[37] = tested on: BT-483; assay: cells; type: cell-based; details: Homo sapiens, BT-483, 72 h
[38] = tested on: NCI-H3122; assay: cells; type: cell-based; details: Homo sapiens, NCI-H3122, 72 h; remark: listed apart in the source
[39] = tested on: LnCAP; assay: cells; type: cell-based; details: Homo sapiens, 72 h; remark: listed apart in the source
[40] = tested on: NCI-H1975; assay: cells; type: cell-based; details: Homo sapiens, NCI-H1975, read-out: Percent inhibition
[41] = tested on: T-47d; assay: cells; type: cell-based; details: Homo sapiens, T47D, 72 h
[42] = tested on: COR-L105; assay: cells; type: cell-based; details: Homo sapiens, COR-L105, 72 h

For `CC(=O)c1c(C)c2cnc(Nc3ccc(N4CCNCC4)cn3)nc2n(C2CCCC2)c1=O` [Palbociclib, reference compound], which IC50 [1] is on record?
Its IC50 is 66000 ± 19000 nM.

For `CN(C)C(=O)c1cc2cnc(Nc3ccc(N4CCNCC4)cn3)nc2n1C1CCCC1` [Ribociclib, 7-cyclopentyl-2-(5-piperazin-1-yl-pyridin-2-ylamino)-7H-pyrrolo[2,3-d]pyrimidine-6-carboxylic acid dimethylamide], which IC50 [2] is on record?
The IC50 was > 10000 nM.

And the IC50 [3]?
Its IC50 is 300 nM.

What about the IC50 [4] of the same compound?
The IC50 was > 10000 nM.

What about the IC50 [5] of the same compound?
The IC50 was 4740 nM.

What about the T/C [6] of the same compound?
The T/C was 52.

And the IC50 [7]?
Its IC50 is 2680 nM.

What about the IC50 [8] of the same compound?
The IC50 was 2090 nM.

What about the IC50 [9] of the same compound?
Its IC50 is 280 nM.

And the IC50 [10]?
The IC50 was > 10000 nM.

And the IC50 [11]?
Its IC50 is > 10000 nM.

And the T/C ([12]; 75 mg/kg qd)?
The T/C was 47.

And the T/C ([12]; 150 mg/kg qd)?
Its T/C is 32.

What about the T/C ([12]; 250 mg/kg qd) of the same compound?
The T/C was 2.

What about the “area under the concentration-time curve” value [13] of the same compound?
Its value is ~22,000 ng/mL × h.

And the maximum serum concentration [13]?
The maximum serum concentration was ~1700 ng/mL.

What about the IC50 [14] of the same compound?
The IC50 was 1600 nM.

And the IC50 [15]?
The IC50 was 180 nM.

What about the IC50 [16] of the same compound?
The IC50 was > 10000 nM.

And the “activity against CDK5/p25” value [17]?
The value was “far less active”.

What about the IC50 [18] of the same compound?
Its IC50 is > 10000 nM.

And the IC50 [19]?
Its IC50 is > 10000 nM.

And the IC50 [20]?
Its IC50 is > 10000 nM.

And the T/C [21]?
The T/C was 108.

And the IC50 [22]?
Its IC50 is > 10000 nM.

And the IC50 [23]?
The IC50 was 980 nM.

And the T/C [24]?
Its T/C is 92.

And the IC50 [25]?
The IC50 was > 10000 nM.

What about the IC50 [26] of the same compound?
The IC50 was 3530 nM.

And the IC50 [27]?
Its IC50 is 2440 nM.

And the IC50 [28]?
The IC50 was > 10000 nM.

What about the IC50 [29] of the same compound?
The IC50 was 4410 nM.

And the IC50 [30]?
The IC50 was 9700 nM.

What about the IC50 [31] of the same compound?
Its IC50 is 890 nM.

What about the T/C [32] of the same compound?
Its T/C is 82.

What about the IC50 [33] of the same compound?
Its IC50 is 2000 nM.

What about the IC50 [34] of the same compound?
Its IC50 is 270 nM.

What about the IC50 [35] of the same compound?
Its IC50 is 180 nM.

What about the IC50 [36] of the same compound?
Its IC50 is > 10000 nM.

What about the IC50 [37] of the same compound?
Its IC50 is > 10000 nM.

What about the IC50 [38] of the same compound?
Its IC50 is 510 nM.

And the IC50 [39]?
The IC50 was 1000 nM.

And the inhibition at 0.08 µM [40]?
The inhibition at 0.08 µM was 14%.

And the inhibition at 1.25 µM [40]?
The inhibition at 1.25 µM was 42%.

What about the inhibition at 5 µM [40] of the same compound?
The inhibition at 5 µM was 54%.

What about the inhibition at 10 µM [40] of the same compound?
The inhibition at 10 µM was 61%.

And the inhibition at […] [40]?
Its inhibition at […] is 20% and 28% and 37% and 49%.

What about the IC50 [41] of the same compound?
Its IC50 is 250 nM.

And the IC50 [42]?
Its IC50 is > 10000 nM.
